In general, GI50 refers to the concentration giving 50% growth inhibition.

Some test systems named below: 786-0; A549; ACHN; DU-145; HCT-116; Hs-578T; IGROV-1; K562; KM12; LOX IMVI; MDA-MB-435; NCI-H522; NCI/ADR-RES; RPMI-8226; SF-295; SN12C; TK-10; UACC-62; UO-31; HT-29.
Common to all, as to test: DTP human tumour cell line panel, 48 h

The structures appear in SMILES notation.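 Exposure lasted 48 hours, with cells grown in 96-well plates and compounds tested at five concentrations. GI50 marks 50% less growth.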 Calls of active or inactive are those of the source. Cut-off read from the data, not from the text of the source: active = GI50 up to about 1.1 µM and inactive = higher.

In the case of `C=C(C(=O)O)[C@@H]1C[C@@H]2O[C@H]1CC(C)=CCC/C(C)=C/CC[C@@]2(C)O`, the GI50 with 786-0, with A549, with ACHN, with DU-145, in the test with HCT-116 and in the test on Hs-578T was > 100 µM (inactive) throughout. Besides, the GI50 in the test with IGROV-1, with K562, in the test with KM12, in the test with LOX IMVI, in the test with MDA-MB-435 and with NCI-H522 was > 100 µM (inactive) each time. For the same compound, the GI50 in the test on NCI/ADR-RES, in the test with RPMI-8226, in the test with SF-295, in the test on SN12C, with TK-10 and in the test with UACC-62 was > 100 µM (inactive) in each case. Besides, in the test with UO-31, the GI50 was > 100 µM (inactive).
Turning to `CC1(C)/C(=N\NC(N)=O)C2CCC1C2` (stereo not given), the GI50 with 786-0, with A549, with ACHN, in the test with DU-145, in the test on HCT-116 and with HT-29 was > 100 µM (inactive) in each case. For the same compound, the GI50 with Hs-578T, in the test with IGROV-1, in the test on K562, in the test on KM12, in the test on LOX IMVI and in the test on MDA-MB-435 was > 100 µM (inactive) each time. The GI50 in the test with NCI-H522, in the test on NCI/ADR-RES, in the test on RPMI-8226, in the test on SF-295, in the test with TK-10 and in the test on UACC-62 was > 100 µM (inactive) in each case. Moreover, in the test with UO-31, the GI50 is > 100 µM (inactive).
Regarding `CCCCCCCCCCCCCCCCOP(=O)(O)OCC(N)C(=O)O` (stereo not given), the GI50 was 21.5 µM (inactive) with 786-0; 21.9 µM (inactive) in the test on A549; 16.3 µM (inactive) with ACHN; 87.3 µM (inactive) in the test on DU-145; 12.5 µM (inactive) in the test on HCT-116; 33 µM (inactive) in the test with HT-29. Moreover, the GI50 in the test on Hs-578T was 16.1 µM (inactive); in the test on IGROV-1, 18.4 µM (inactive); with K562, 22.8 µM (inactive); with KM12 it was 12.6 µM (inactive); in the test on LOX IMVI, 13.5 µM (inactive); in the test on MDA-MB-435 it was 22.5 µM (inactive). Moreover, the GI50 in the test on NCI-H522 was 20.3 µM (inactive); with NCI/ADR-RES, 33.3 µM (inactive); in the test with RPMI-8226, 18.6 µM (inactive); with SF-295 it was 14.5 µM (inactive); in the test with SN12C, 18.3 µM (inactive); in the test on TK-10 it was 5.02 µM (inactive). For the same compound, the GI50 in the test with UACC-62 is 18 µM (inactive); in the test on UO-31, 12.9 µM (inactive).
Turning to `O=C(O)/C=C/c1ccc(Oc2ccccc2C(=O)O)o1`, the GI50 in the test with 786-0, in the test on A549, with ACHN, with DU-145, in the test on HCT-116 and in the test on HT-29 was > 10 µM (inactive) throughout. The GI50 in the test on Hs-578T, in the test with IGROV-1, in the test with K562, in the test with KM12, with LOX IMVI and in the test with MDA-MB-435 was > 10 µM (inactive) in each case. Besides, the GI50 in the test on NCI-H522, with NCI/ADR-RES, in the test on RPMI-8226, in the test with SF-295, in the test with SN12C and with TK-10 was > 10 µM (inactive) each time. Moreover, the GI50 in the test with UACC-62 was > 10 µM (inactive).
As for `COC(=O)c1c2c(cc3c1CC1(C3)Cc3cc4c(c(C(C)=O)c3C1)CCC4)C=CC2` (stereo not given), the GI50 with 786-0 is > 31.6 µM (inactive); in the test with A549, > 31.6 µM (inactive); in the test with ACHN it was 10.2 µM (inactive); in the test on DU-145 it was > 31.6 µM (inactive); in the test with HCT-116 it was 27.9 µM (inactive); in the test with HT-29, 18.7 µM (inactive). Further, the GI50 with Hs-578T was > 31.6 µM (inactive); in the test with IGROV-1, > 31.6 µM (inactive); with K562 it was 27 µM (inactive); in the test on KM12, > 31.6 µM (inactive); in the test on LOX IMVI, > 10 µM (inactive); in the test on MDA-MB-435, 30.5 µM (inactive). The GI50 in the test with NCI-H522 was 27.6 µM (inactive); with NCI/ADR-RES, > 31.6 µM (inactive); in the test with RPMI-8226, 14.2 µM (inactive); in the test on SF-295, > 31.6 µM (inactive); in the test on SN12C, > 31.6 µM (inactive); in the test on TK-10 it was > 31.6 µM (inactive). Further, the GI50 in the test on UACC-62 is 30.7 µM (inactive); in the test on UO-31, 24.3 µM (inactive).
As for `C[n+]1c2ccccc2n2c3ccccc3c(NCc3ccco3)c(C#N)c21`, the GI50 in the test with 786-0 was 1.51 µM (inactive); in the test on A549, 3.15 µM (inactive); in the test on ACHN it was 1.46 µM (inactive); with DU-145 it was 3.09 µM (inactive); with HCT-116 it was 0.957 µM (active); in the test with HT-29, 2.7 µM (inactive). The GI50 with Hs-578T is 2.96 µM (inactive); in the test with K562, 1.49 µM (inactive); in the test with KM12, 2.79 µM (inactive); in the test on LOX IMVI, 1.05 µM (active); in the test on MDA-MB-435, 1.76 µM (inactive); with NCI-H522, 0.678 µM (active). Further, the GI50 is 2.2 µM (inactive) with NCI/ADR-RES; 0.546 µM (active) with RPMI-8226; 2.67 µM (inactive) in the test on SF-295; 1.23 µM (inactive) in the test with SN12C; 1.52 µM (inactive) in the test on TK-10; 2.84 µM (inactive) with UACC-62. The GI50 in the test with UO-31 was 1.22 µM (inactive).
With `CCOC(=O)C1(C(=O)OCC)C[C@@H](C)[C@@H](O)C1`, the GI50 in the test with 786-0, in the test with A549, in the test with ACHN, in the test on DU-145, in the test with HCT-116 and in the test with HT-29 was > 100 µM (inactive) throughout. Besides, the GI50 in the test with Hs-578T, in the test with IGROV-1, in the test on K562, with KM12, with LOX IMVI and in the test with MDA-MB-435 was > 100 µM (inactive) throughout. In addition, the GI50 in the test on NCI-H522, in the test on NCI/ADR-RES, in the test with RPMI-8226, in the test with SF-295, in the test on SN12C and with TK-10 was > 100 µM (inactive) throughout. In addition, the GI50 with UACC-62 and with UO-31 was > 100 µM (inactive) each time.
On to `Cc1ccc(S(=O)(=O)NC(=O)NCC(=O)NCC(=O)O)cc1`, for which the GI50 in the test with 786-0, with A549, with ACHN, with DU-145, with HCT-116 and in the test on HT-29 was > 100 µM (inactive) throughout. Besides, the GI50 with Hs-578T, in the test with IGROV-1, in the test on K562, in the test with KM12, in the test on LOX IMVI and with MDA-MB-435 was > 100 µM (inactive) in each case. Further, the GI50 in the test on NCI-H522, with NCI/ADR-RES, with RPMI-8226, with SF-295, in the test with TK-10 and with UACC-62 was > 100 µM (inactive) each time. Besides, in the test on UO-31, the GI50 was > 100 µM (inactive).
As to `NCCCCNCCCN1CC1`, the GI50 was 0.359 µM (active) in the test with 786-0; 4.94 µM (inactive) in the test on A549; 0.902 µM (active) with ACHN; 1.77 µM (inactive) in the test on DU-145; 2.42 µM (inactive) in the test on HCT-116; 4.55 µM (inactive) with HT-29. Moreover, the GI50 in the test on Hs-578T is 0.433 µM (active); with IGROV-1, 2.77 µM (inactive); with K562, 1.75 µM (inactive); in the test on KM12, 4.67 µM (inactive); in the test on LOX IMVI it was 0.284 µM (active); in the test on MDA-MB-435, 1.15 µM (inactive). The GI50 is 2.47 µM (inactive) in the test on NCI-H522; 1.16 µM (inactive) in the test on NCI/ADR-RES; 8 µM (inactive) with RPMI-8226; 4.09 µM (inactive) in the test with SF-295; 1.19 µM (inactive) in the test with SN12C; 2.04 µM (inactive) in the test with TK-10. Further, the GI50 in the test with UACC-62 is 5.18 µM (inactive); in the test on UO-31 it was 1.77 µM (inactive).
Consider `CC1=CC(=O)[C@@H](O)[C@]2(C)[C@H]3[C@@]4(O)OC[C@@]35[C@@H](C[C@@H]12)OC(=O)C(OC(=O)CC1=CCCC1)[C@H]5[C@@H](C)[C@H]4O` (stereo not given in full), for which the GI50 in the test with 786-0 was 0.0465 µM (active); with A549, 0.28 µM (active); in the test with ACHN it was 0.0344 µM (active); with DU-145 it was 0.0665 µM (active); in the test with HCT-116, 0.0255 µM (active); in the test on HT-29 it was 0.0238 µM (active). Also, the GI50 is 0.0272 µM (active) with Hs-578T; 0.0188 µM (active) in the test on IGROV-1; 0.0246 µM (active) in the test with K562; 0.0256 µM (active) in the test with KM12; < 0.0177 µM (active) in the test on LOX IMVI; 0.0404 µM (active) in the test on MDA-MB-435. In addition, the GI50 in the test on NCI-H522 is 0.0178 µM (active); in the test with NCI/ADR-RES it was 0.136 µM (active); in the test with RPMI-8226, < 0.0124 µM (active); in the test on SF-295, 0.0649 µM (active); in the test with SN12C it was 0.0481 µM (active); in the test with TK-10, 0.0408 µM (active). Also, the GI50 is 0.0383 µM (active) with UACC-62 and 0.0668 µM (active) in the test with UO-31.

Values taken from ChEMBL document CHEMBL1201862, “PubChem BioAssay data set” (2004).
